One experiment deals with α7 integrin. Nature of the experiment: FDG based β-galactosidase fluorescent assay (reporter for α7 expression). Type of experiment: cell-based, mouse. The following applies: 2 mM VPA, 48 hours, α7+/− myotubes from day two of differentiation. As to the method: The α7^+/− mice were derived as reported in Flintoff-Dye, et al. Role for the alpha7beta1 integrin in vascular development and integrity, Dev. Dyn. 234:11-21 (2005). These mice were engineered to contain the LacZ gene driven by the α7 integrin promoter. Skeletal muscles from the hind limbs (including gastrocnemius-soleus, quadriceps and tibialis anterior) of a 3-week old α7^+/− mouse were removed under sterile conditions, finely minced in Hank's balanced salt solution (HBSS) and incubated in 5 ml of enzyme solution I consisting of 1.5 U/ml collagenase D (0.15 U/mg powder, from Roche Diagnostics, Indianapolis, Ind.), 2.4 U/ml dispase II (neutral protease, grade II, 0.8 U/mg powder, from Roche Diagnostics) and 2.5 mM calcium chloride for 30 minutes at 37° C. with trituration every 5 minutes. The supernatant was decanted into 5 ml of 20% fetal bovine serum (FBS) (Biomeda Corporation, Foster City, Calif.) in HBSS. Enzyme solution II consisting of 0.6 mg/ml trypsin (stock solution 0.5%, from Invitrogen) in HBSS was added to the remaining muscle fragments, incubated for 30 minutes as above, and the cell suspensions were pooled. […] The fluorescence in each well was quantified using an Analyst plate reader (Molecular Devices, Sunnyvale, Calif.).

For the next experiment, the system named is Akt. The experiment can be described thus: Western blotting of activated and total Akt in α7+/− myotubes. Type of experiment: cell-based, mouse. The procedure: α7^+/− myogenic cells were cultured on 1% gelatin-coated plastic plates in Ham's F-10 growth medium (20% FBS, 0.5% chick embryo extract, 5 ng/ml bFGF, 2 mM glutamine, 100 U/ml penicillin and 100 μg/ml streptomycin). After six passages, cells were grown in DMEM containing 20% FBS, 0.5% chick embryo extract, 2 mM glutamine, 100 U/ml penicillin and 100 μg/ml streptomycin. Differentiation was induced by switching the medium to DMEM containing 2% horse serum and antibiotics when cells attained 90% confluence. […] Wortmannin was used at 100 nM and added fresh every 24 hours.
To test whether Akt activation by VPA in α7^+/− myotubes is dependent on PI3K, α7^+/− cells were differentiated for 48 hours and treated for 72 hours with 2 mM VPA with or without 100 nM Wortmannin. Fresh drugs were added every 24 hours. Phase-contrast micrographs of the cultures were captured at the end of 72 hours of treatment. To determine status of Akt activation in the cultures, α7^+/− myotubes were treated as above and protein extracts were made at the end of 72 hours of treatment using a 2% Triton X-100 extraction buffer (see below). Immunoblotting for phospho- and total Akt were done as detailed below.
Cell lysates of differentiating cells on 60 mm dishes were prepared as follows: the cells were washed twice with PBS and 200 μl Triton X-100 lysis buffer (2% Triton X-100, 20 mM Tris-Cl, pH 7.4, 150 mM NaCl, 1 mM EDTA, 1 mM EGTA, 2.5 mM NaPPi, 1 mM β-glycerophosphate, 1 mM sodium vanadate, 1:200 Protease Inhibitor Cocktail (EMD Chemicals, San Diego, Calif.) and 1 mM PMSF) were added. The cells were scraped and transferred into Eppendorf tubes, the cell suspensions were triturated and centrifuged at 8000×g at 4° C. for 10 minutes, and the supernatants were collected. Lysates from mouse skeletal muscle were prepared as follows: the quadriceps muscles were dissected out, snap-frozen in liquid nitrogen and pulverized using a mortar and pestle. The powdered muscles were collected in Eppendorf tubes, 500 μl of Triton X-100 lysis buffer were added, rotated at 4° C. for 30 minutes, centrifuged at 8000×g for 10 minutes and the supernatants were collected. Protein concentrations were determined by the Bradford assay. SDS extracts of muscle were made by boiling powdered muscle in extraction buffer (100 mM Tris-Cl, pH 8.0, 10% SDS, 10 mM EDTA and 10% glycerol) for 10 minutes, vortexing vigorously, and centrifuging at 8000×g for 10 minutes. The supernatants were collected and protein concentrations were determined spectrophotometrically at OD260 and OD280. SDS-PAGE was carried out using 50 μg of protein for each sample and separated proteins were transferred to nitrocellulose membranes. For western blotting using antibodies against signaling proteins, membranes were blocked in 5% BSA in TBST for 2 hours at room temperature. For all other blots, incubations were done in 5% milk in TBST overnight at 4° C. The membranes were incubated overnight at 4° C. with primary antibodies diluted 1:1000 in 1% BSA in TBST. After washing in 1% BSA in TBST, blots were incubated for 1 hour in HRP-conjugated secondary antibodies diluted 1:5000 in 1% BSA in TBST. Blots were processed using the ECL kit (Amersham Biosciences, Piscataway, N.J.) and bands were visualized with Kodak Biomax MR film (Kodak, Rochester, N.Y.). ImageQuant analysis software (Molecular Dynamics, Sunnyvale, Calif.) was used to quantify band intensity.

A value given as a limit tells only on which side of the number the result lay.

On to `CCCC(CCC)C(=O)O` [VPA, valproic acid], for which, in the experiment on α7 integrin, the “β-galactosidase activity (reporter for α7 expression), highest level” value worked out at 1.4 fold. Further, the “levels of activated Akt, time course” value with Akt (2 mM VPA daily, extracts every 24 hours up to 144 hours) is listed as “higher levels of activated Akt at all time-points”. The “concentration of maximal Akt activation” value in the experiment on Akt (1 hour exposure) stood at 30 mM. Also, in the experiment on Akt (VPA for 48 or 72 hours), the “levels of activated Akt” value is “higher levels”. Also, in the experiment with Akt (beyond 96 hours), the “higher levels of Akt in VPA treated cultures” value was 2 to 3 fold. Further, in the experiment with Akt (various concentrations of VPA, two-day old differentiating cultures), the “time to Akt activation” value was at most 1 h.

These data come from patent US20120003191A1, “VALPROIC ACID, DERIVATIVES, ANALOGUES, AND COMPOSITIONS INCLUDING SAME AND METHODS FOR THEIR THERAPEUTIC USE” (priority 2009, published 2012).
